Measured values as given in ChEMBL document CHEMBL4196076, “An access to a library of novel triterpene derivatives with a promising pharmacological potential by Ugi and Passerini multicomponent reactions” (Eur J Med Chem, 2018).

Test system: NIH3T3
Assay: Cytotoxicity against mouse NIH/3T3 cells after 96 hrs by sulforhodamine-B assay
Type: cell-based
Conditions: NIH3T3, 96 h

Structure (SMILES) | EC50 [µM]
CC(=O)O[C@H]1CC[C@]2(C)[C@H]3CC=C4[C@@H]5CC(C)(C)CC[C@]5(C(=O)N(CC(=O)NCc5ccccc5)Cc5ccoc5)CC[C@@]4(C)[C@]3(C)CC[C@H]2C1(C)C | > 30
CN(CC(=O)NC(C)(C)C)C(=O)[C@]12CCC(C)(C)C[C@H]1C1=CC[C@@H]3[C@@]4(C)CC[C@H](O)C(C)(C)[C@@H]4CC[C@@]3(C)[C@]1(C)CC2 | 11.2
C=CCN(CC(=O)NC(C)(C)C)C(=O)[C@]12CCC(C)(C)C[C@H]1C1=CC[C@@H]3[C@@]4(C)C[C@@H](OC(C)=O)[C@H](OC(C)=O)C(C)(C)[C@@H]4CC[C@@]3(C)[C@]1(C)CC2 | 7.8
CC(=O)O[C@H]1CC[C@]2(C)[C@H]3CC=C4[C@@H]5CC(C)(C)CC[C@]5(C(=O)OCC(=O)NC(C)(C)C)CC[C@@]4(C)[C@]3(C)CC[C@H]2C1(C)C | 20

Test system: MCF7
Assay: Cytotoxicity against human MCF7 cells after 96 hrs by sulforhodamine-B assay
Type: functional, cell-based
Conditions: MCF7, 96 h

Structure (SMILES) | EC50 [µM]
CC(=O)O[C@H]1CC[C@]2(C)[C@H]3CC=C4[C@@H]5CC(C)(C)CC[C@]5(C(=O)N(CC(=O)NCc5ccccc5)Cc5ccoc5)CC[C@@]4(C)[C@]3(C)CC[C@H]2C1(C)C | 15
CN(CC(=O)NC(C)(C)C)C(=O)[C@]12CCC(C)(C)C[C@H]1C1=CC[C@@H]3[C@@]4(C)CC[C@H](O)C(C)(C)[C@@H]4CC[C@@]3(C)[C@]1(C)CC2 | 12.2
C=CCN(CC(=O)NC(C)(C)C)C(=O)[C@]12CCC(C)(C)C[C@H]1C1=CC[C@@H]3[C@@]4(C)C[C@@H](OC(C)=O)[C@H](OC(C)=O)C(C)(C)[C@@H]4CC[C@@]3(C)[C@]1(C)CC2 | 4.1
CC(=O)O[C@H]1CC[C@]2(C)[C@H]3CC=C4[C@@H]5CC(C)(C)CC[C@]5(C(=O)OCC(=O)NC(C)(C)C)CC[C@@]4(C)[C@]3(C)CC[C@H]2C1(C)C | 12.9

Test system: HT-29
Assay: Cytotoxicity against human HT-29 cells after 96 hrs by sulforhodamine-B assay
Type: functional, cell-based
Conditions: HT-29, 96 h

Structure (SMILES) | EC50 [µM]
CC(=O)O[C@H]1CC[C@]2(C)[C@H]3CC=C4[C@@H]5CC(C)(C)CC[C@]5(C(=O)N(CC(=O)NCc5ccccc5)Cc5ccoc5)CC[C@@]4(C)[C@]3(C)CC[C@H]2C1(C)C | > 30
CN(CC(=O)NC(C)(C)C)C(=O)[C@]12CCC(C)(C)C[C@H]1C1=CC[C@@H]3[C@@]4(C)CC[C@H](O)C(C)(C)[C@@H]4CC[C@@]3(C)[C@]1(C)CC2 | 13.8
C=CCN(CC(=O)NC(C)(C)C)C(=O)[C@]12CCC(C)(C)C[C@H]1C1=CC[C@@H]3[C@@]4(C)C[C@@H](OC(C)=O)[C@H](OC(C)=O)C(C)(C)[C@@H]4CC[C@@]3(C)[C@]1(C)CC2 | 3.9
CC(=O)O[C@H]1CC[C@]2(C)[C@H]3CC=C4[C@@H]5CC(C)(C)CC[C@]5(C(=O)OCC(=O)NC(C)(C)C)CC[C@@]4(C)[C@]3(C)CC[C@H]2C1(C)C | 27.4

Test system: A2780
Assay: Induction of apoptosis in human A2780 cells assessed as vital cells at 2 uM after 48 hrs by Annexin V-FITC/propidium iodide staining-based flow cytometric analysis (reference value: 78.4 +/- 2.1%)
Type: functional
Conditions: not given

Structure (SMILES) | Activity [%]
C=CCN(CC(=O)NC(C)(C)C)C(=O)[C@]12CCC(C)(C)C[C@H]1C1=CC[C@@H]3[C@@]4(C)C[C@@H](OC(C)=O)[C@H](OC(C)=O)C(C)(C)[C@@H]4CC[C@@]3(C)[C@]1(C)CC2 | 61.7

Test system: A2780
Assay: Cell cycle arrest in human A2780 cells assessed as accumulation at S phase at 2 uM after 48 hrs by propidium iodide/RNase-staining based flow cytometric analysis (reference value: 29.6 +/- 3.1%)
Type: functional
Conditions: not given

Structure (SMILES) | Activity [%]
C=CCN(CC(=O)NC(C)(C)C)C(=O)[C@]12CCC(C)(C)C[C@H]1C1=CC[C@@H]3[C@@]4(C)C[C@@H](OC(C)=O)[C@H](OC(C)=O)C(C)(C)[C@@H]4CC[C@@]3(C)[C@]1(C)CC2 | 31.7

Test system: FaDu
Assay: Cytotoxicity against human FADU cells after 96 hrs by sulforhodamine-B assay
Type: functional, cell-based
Conditions: not given

Structure (SMILES) | EC50 [µM]
CC(=O)O[C@H]1CC[C@]2(C)[C@H]3CC=C4[C@@H]5CC(C)(C)CC[C@]5(C(=O)N(CC(=O)NCc5ccccc5)Cc5ccoc5)CC[C@@]4(C)[C@]3(C)CC[C@H]2C1(C)C | 22.1
CN(CC(=O)NC(C)(C)C)C(=O)[C@]12CCC(C)(C)C[C@H]1C1=CC[C@@H]3[C@@]4(C)CC[C@H](O)C(C)(C)[C@@H]4CC[C@@]3(C)[C@]1(C)CC2 | 8.1
C=CCN(CC(=O)NC(C)(C)C)C(=O)[C@]12CCC(C)(C)C[C@H]1C1=CC[C@@H]3[C@@]4(C)C[C@@H](OC(C)=O)[C@H](OC(C)=O)C(C)(C)[C@@H]4CC[C@@]3(C)[C@]1(C)CC2 | 4.8
CC(=O)O[C@H]1CC[C@]2(C)[C@H]3CC=C4[C@@H]5CC(C)(C)CC[C@]5(C(=O)OCC(=O)NC(C)(C)C)CC[C@@]4(C)[C@]3(C)CC[C@H]2C1(C)C | 12.7

Test system: A2780
Assay: Induction of apoptosis in human A2780 cells assessed as apoptotic cells at 2 uM after 48 hrs by Annexin V-FITC/propidium iodide staining-based flow cytometric analysis (reference value: 2.8 +/- 2.1%)
Type: functional
Conditions: not given

Structure (SMILES) | Activity [%]
C=CCN(CC(=O)NC(C)(C)C)C(=O)[C@]12CCC(C)(C)C[C@H]1C1=CC[C@@H]3[C@@]4(C)C[C@@H](OC(C)=O)[C@H](OC(C)=O)C(C)(C)[C@@H]4CC[C@@]3(C)[C@]1(C)CC2 | 9.9

Test system: A2780
Assay: Induction of apoptosis in human A2780 cells assessed as necrotic cells at 2 uM after 48 hrs by Annexin V-FITC/propidium iodide staining-based flow cytometric analysis (reference value: 10.6 +/- 1.2%)
Type: functional
Conditions: not given

Structure (SMILES) | Activity [%]
C=CCN(CC(=O)NC(C)(C)C)C(=O)[C@]12CCC(C)(C)C[C@H]1C1=CC[C@@H]3[C@@]4(C)C[C@@H](OC(C)=O)[C@H](OC(C)=O)C(C)(C)[C@@H]4CC[C@@]3(C)[C@]1(C)CC2 | 13.7

Test system: A549
Assay: Cytotoxicity against human A549 cells after 96 hrs by sulforhodamine-B assay
Type: functional, cell-based
Conditions: A549, 96 h

Structure (SMILES) | EC50 [µM]
CC(=O)O[C@H]1CC[C@]2(C)[C@H]3CC=C4[C@@H]5CC(C)(C)CC[C@]5(C(=O)N(CC(=O)NCc5ccccc5)Cc5ccoc5)CC[C@@]4(C)[C@]3(C)CC[C@H]2C1(C)C | > 30
CN(CC(=O)NC(C)(C)C)C(=O)[C@]12CCC(C)(C)C[C@H]1C1=CC[C@@H]3[C@@]4(C)CC[C@H](O)C(C)(C)[C@@H]4CC[C@@]3(C)[C@]1(C)CC2 | 8.6
C=CCN(CC(=O)NC(C)(C)C)C(=O)[C@]12CCC(C)(C)C[C@H]1C1=CC[C@@H]3[C@@]4(C)C[C@@H](OC(C)=O)[C@H](OC(C)=O)C(C)(C)[C@@H]4CC[C@@]3(C)[C@]1(C)CC2 | 4.4
CC(=O)O[C@H]1CC[C@]2(C)[C@H]3CC=C4[C@@H]5CC(C)(C)CC[C@]5(C(=O)OCC(=O)NC(C)(C)C)CC[C@@]4(C)[C@]3(C)CC[C@H]2C1(C)C | 13.2

Test system: A2780
Assay: Cell cycle arrest in human A2780 cells assessed as accumulation at G2/M phase at 2 uM after 48 hrs by propidium iodide/RNase-staining based flow cytometric analysis (reference value: 12.9 +/- 1.4%)
Type: functional
Conditions: not given

Structure (SMILES) | Activity [%]
C=CCN(CC(=O)NC(C)(C)C)C(=O)[C@]12CCC(C)(C)C[C@H]1C1=CC[C@@H]3[C@@]4(C)C[C@@H](OC(C)=O)[C@H](OC(C)=O)C(C)(C)[C@@H]4CC[C@@]3(C)[C@]1(C)CC2 | 6.3

Test system: A2780
Assay: Induction of apoptosis in human A2780 cells assessed as secondary necrotic cells at 2 uM after 48 hrs by Annexin V-FITC/propidium iodide staining-based flow cytometric analysis (reference value: 8.2 +/- 0.7%)
Type: functional
Conditions: not given

Structure (SMILES) | Activity [%]
C=CCN(CC(=O)NC(C)(C)C)C(=O)[C@]12CCC(C)(C)C[C@H]1C1=CC[C@@H]3[C@@]4(C)C[C@@H](OC(C)=O)[C@H](OC(C)=O)C(C)(C)[C@@H]4CC[C@@]3(C)[C@]1(C)CC2 | 14.6

Test system: 518A2
Assay: Cytotoxicity against human 518A2 cells after 96 hrs by sulforhodamine-B assay
Type: functional, cell-based
Conditions: 518A2, 96 h

Structure (SMILES) | EC50 [µM]
CC(=O)O[C@H]1CC[C@]2(C)[C@H]3CC=C4[C@@H]5CC(C)(C)CC[C@]5(C(=O)N(CC(=O)NCc5ccccc5)Cc5ccoc5)CC[C@@]4(C)[C@]3(C)CC[C@H]2C1(C)C | 15.9
CN(CC(=O)NC(C)(C)C)C(=O)[C@]12CCC(C)(C)C[C@H]1C1=CC[C@@H]3[C@@]4(C)CC[C@H](O)C(C)(C)[C@@H]4CC[C@@]3(C)[C@]1(C)CC2 | 7.9
C=CCN(CC(=O)NC(C)(C)C)C(=O)[C@]12CCC(C)(C)C[C@H]1C1=CC[C@@H]3[C@@]4(C)C[C@@H](OC(C)=O)[C@H](OC(C)=O)C(C)(C)[C@@H]4CC[C@@]3(C)[C@]1(C)CC2 | 2.9
CC(=O)O[C@H]1CC[C@]2(C)[C@H]3CC=C4[C@@H]5CC(C)(C)CC[C@]5(C(=O)OCC(=O)NC(C)(C)C)CC[C@@]4(C)[C@]3(C)CC[C@H]2C1(C)C | 13.2

Test system: A2780
Assay: Cell cycle arrest in human A2780 cells assessed as accumulation at sub-G1 phase at 2 uM after 48 hrs by propidium iodide/RNase-staining based flow cytometric analysis
Type: functional
Conditions: not given

Structure (SMILES) | Activity [%]
C=CCN(CC(=O)NC(C)(C)C)C(=O)[C@]12CCC(C)(C)C[C@H]1C1=CC[C@@H]3[C@@]4(C)C[C@@H](OC(C)=O)[C@H](OC(C)=O)C(C)(C)[C@@H]4CC[C@@]3(C)[C@]1(C)CC2 | 5.3

Test system: A2780
Assay: Cytotoxicity against human A2780 cells after 96 hrs by sulforhodamine-B assay
Type: functional, cell-based
Conditions: A2780, 96 h

Structure (SMILES) | EC50 [µM]
CC(=O)O[C@H]1CC[C@]2(C)[C@H]3CC=C4[C@@H]5CC(C)(C)CC[C@]5(C(=O)N(CC(=O)NCc5ccccc5)Cc5ccoc5)CC[C@@]4(C)[C@]3(C)CC[C@H]2C1(C)C | 6.3
CN(CC(=O)NC(C)(C)C)C(=O)[C@]12CCC(C)(C)C[C@H]1C1=CC[C@@H]3[C@@]4(C)CC[C@H](O)C(C)(C)[C@@H]4CC[C@@]3(C)[C@]1(C)CC2 | 11
C=CCN(CC(=O)NC(C)(C)C)C(=O)[C@]12CCC(C)(C)C[C@H]1C1=CC[C@@H]3[C@@]4(C)C[C@@H](OC(C)=O)[C@H](OC(C)=O)C(C)(C)[C@@H]4CC[C@@]3(C)[C@]1(C)CC2 | 0.5
CC(=O)O[C@H]1CC[C@]2(C)[C@H]3CC=C4[C@@H]5CC(C)(C)CC[C@]5(C(=O)OCC(=O)NC(C)(C)C)CC[C@@]4(C)[C@]3(C)CC[C@H]2C1(C)C | 8.8

Test system: A2780
Assay: Cell cycle arrest in human A2780 cells assessed as accumulation at G0/G1 phase at 2 uM after 48 hrs by propidium iodide/RNase-staining based flow cytometric analysis (reference value: 57.5 +/- 4.5%)
Type: functional
Conditions: not given

Structure (SMILES) | Activity [%]
C=CCN(CC(=O)NC(C)(C)C)C(=O)[C@]12CCC(C)(C)C[C@H]1C1=CC[C@@H]3[C@@]4(C)C[C@@H](OC(C)=O)[C@H](OC(C)=O)C(C)(C)[C@@H]4CC[C@@]3(C)[C@]1(C)CC2 | 56.8
